Data as given in patent US9279107B2, “Simplified basic media for human pluripotent cell culture” (WISCONSIN ALUMNI RESEARCH FOUNDATION, priority 2010, dated 2016).

Key:
Format in all cases: cell-based, human
[1] = system: iPS cells; experiment: Long-term pluripotency of lentiviral iPS cell lines; details: added to DF5SFe; TGF-β 2 ng/ml or NODAL 100 ng/ml
Source text: Human ES cell lines, such as H1 and H9 have a culture history that includes exposure to various complex culture components, such as FBS, feeder cells, and knockout serum replacer. Exposure to these components could conceivably create dependency on these components and, consequently, alter cellular response to simplified media. Culture history might play a lesser role for iPS cells, derived from reprogrammed somatic cells, as derivation conditions are less complex. Therefore, different factors were tested with two original lentiviral iPS cell lines (Yu, et al., Science 318:1917 (2007)) grown in DF5SFe. Cells were transferred from MEF plates directly into DF5SFe medium for one passage and then passaged into various growth factor conditions. […] Pluripotency surface markers SSEA4, SSEA3, Tra-1-60, and Tra-1-81 were also expressed. Cells with normal karyotypes were continuously maintained for more than 20 passages. The cells were capable of forming teratomas 5-7 weeks after injection into severe combined immunodeficient (SCID) mice.

[2] = system: foreskin cells; experiment: Reprogramming of foreskin fibroblasts to iPS cells; details: foreskin fibroblasts
Procedure: Available reprogramming protocols include incubation of the cells in FBS in the first several days after viral transduction or electroporation, prior to switching the cells to UM100 (U.S. Pat. No. 7,439,064, incorporated herein as if set forth in its entirety) or CM. The simplified media described in previous Examples were tested for their ability to support reprogramming.
To determine if DF5S-based media can be used for viral-free iPS cell derivation, foreskin cells were reprogrammed using a viral-free episomal vector, as described in Yu et al., Science 324:797 (2009), incorporated herein by reference as if set forth in its entirety, at hypoxic conditions (O5C10).
Plasmid combinations #6 and #19 were used for the reprogramming. In order to enhance the plasmid entry into the nucleus, ENBA mRNA was electroporated along with plasmid DNA. Around one million cells were transferred onto two 6-well plates in DF5SFeC for 5 days. Medium was then switched to DF5SFe for another 18-25 days. Cells of some of the wells were passaged for a second time using a 1:6 ratio at different time points.

[3] = system: H1 cells; experiment: NANOG mRNA expression; details: added to DF5S; NODAL 100 ng/ml or TGF-β 2 ng/ml; compared to DF5S
Source text: DF5S was used to expand H1 cells. Cells grown in DF5S were more prone to differentiate than cells grown in TeSR™. However, H1 cells could be grown for several weeks (more than 15 passages), during which the cells maintained human ES cell morphology and high levels of OCT4 expression (FIG. 1E, FIG. 1F). […] DF5S+NODAL also supported pluripotency of the two tested human iPS cell lines, as determined by high expression of the pluripotency marker OCT4. All cells (hES cells and iPS cells) grown in DF5S with either NODAL or TGF-β maintained a normal karyotype after long-term passage.

[4] = system: patient cell lines OAT, PRPF8-2, GRC M1-29; experiment: Reprogramming of adult donor cell lines with episomal vectors; details: TGF-β added to the reprogramming media
[5] = system: H1 cells; experiment: Oct4 expression by flow cytometry as indicator of pluripotency
Procedure: As described in Example 3, human pluripotent cells, such as H1, H9, and iPS cells, could be grown and passaged over 15 times in DF5S but were prone to differentiate, such that extra care is needed to sustain pluripotency in DF5S. Because pluripotency could be maintained more easily in TeSR™, growth factors present in TeSR™ were added individually to DF5SFe used to grow H1 cells that were previously cultured in DF5S without differentiating to identify factors supporting long-term pluripotency. Cells were passaged approximately one day after reaching confluency, facilitating cell differentiation, and Oct4 expression, assessed by flow cytometry, was used as indicator of pluripotency.
Human pluripotent cells grown in DF5SFe elongated and lined up along each other, resembling a “spindle” shape just prior to differentiation. […] Thus, recombinant proteins of the TGF-β pathway were tested for their ability to support long-term pluripotency.

[6] = system: H1 cells; experiment: Extended passage of cells in simplified media; details: DF5, or nutritional factor added individually to DF5

Molecule | long-term pluripotency [1] | number of colonies during reprogramming [2] | number of true iPS cell colonies ([2]; TGF-β addition) | NANOG mRNA level [3] | number of iPS clones [4] | total number of colonies [4] | Oct4 expression ([5]; DF5SFe supplemented with TGF-β at TeSR concentration (0.6 ng/ml)) | Oct4 expression ([5]; DF5SFe supplemented with TGF-β at higher concentration (1 ng/ml)) | cell growth / proliferation through multiple passages [6]
transforming growth factor beta [TGF-β] | supported long-term pluripotency of iPS cells | increased numbers of colonies | remained low | significantly higher levels of NANOG mRNA | not increased significantly | increased significantly | low levels of Oct4 expression | maintain high Oct4 expression | 
[Se] [selenium] |  |  |  |  |  |  |  |  | sufficient to support cell proliferation through multiple passages
